Our source for the RP-LC retention time values is the METLIN SMRT retention time set (Domingo-Almenara et al. 2019).

Structures are written as SMILES.

The nature of this data set: gradient 5% acetonitrile 3 min, to 50% in 2 min, to 85% in 15 min, held 3 min, 100 µL/min. The settings on record: column: Zorbax Extend-C18 2.1 x 50 mm; eluents: water / acetonitrile, 0.1% formic acid. The essentials:
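Retention times of pure standards were taken from adduct peaks that were selected by computer and manually inspected. Over 3 months, mixtures of ~100 molecules were run by HPLC–quadrupole time-of-flight mass spectrometry in positive and negative ionization mode. The Zorbax Extend-C18 column (2.1 × 50 mm, 1.8 μm) ran at 100 μL/min in water and acetonitrile, each containing 0.1% formic acid, with 40 μL dead volume and 900 μL dwell volume.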
The compound `Cc1cc(C)nc(Nc2nc(CC(=O)Nc3nc(C)c(C(=O)N(C)C)s3)cs2)n1` yielded an RP-LC retention time of 646 s.
`O=C(Nc1ccc2c(c1)N(C(=O)c1ccco1)CCC2)Oc1ccccc1` displayed an RP-LC retention time of 850 s.
The value for `Cc1c(C2CCN(C(=O)c3n[nH]c4ccccc34)CC2)noc1N` was 643 s; that for `CCCC(=O)Nc1nc2ccc(CCC(=O)Nc3ccc(CC)cc3)cc2s1` was 952 s.
Then `O=C(NC1CCCCC1)c1nc(Nc2ccccc2)c2ccccc2n1`, with 861 s; and `O=C(OCc1nc2ccccc2s1)c1ccc2c(c1)OCCO2`, with 953 s.
For `Cc1cc(N2CCN(C(=O)c3ccco3)CC2)nc(N2CCOCC2)n1`, the RP-LC retention time came to 566 s.
Consider `CCCCOc1ccc(CNC(=O)C2CCCN(c3nccc(C)n3)C2)cc1` (stereo not given), for which the RP-LC retention time worked out at 930 s.
Compound `O=C(NC1CCCCC1)c1csc(-c2ccc(N3CCOCC3)nc2)n1` showed an RP-LC retention time of 916 s.
Then `COc1ccccc1CNC(=O)Cn1nc2c(N3CCC(C)CC3)nccn2c1=O`, with 745 s; and `Cn1nc(C(=O)N2CCOCC2)c2c1CCN(C(=O)Nc1ccccc1Br)C2`, with 674 s; and `CCOc1ccc(-c2nc3ncccn3c2NCc2ccccc2OC)cc1OC`, with 739 s.
On to `Cc1cccc(S(=O)(=O)N2CC3CN(C(=O)c4ccco4)CC(C2)O3)c1`, for which the RP-LC retention time amounted to 933 s.
Then `COc1ccc(-c2nc(-c3ccc4c(c3)oc(=O)n4C)no2)c(OC)c1`, with 959 s; and `CCCn1nnc2cc(-c3noc(C4CC(=O)N(c5cccc(Cl)c5)C4)n3)ccc21` (stereo not given), with 994 s.
The value for `CCOC(=O)c1cn(Cc2ccccc2F)c2nc(C)ccc2c1=O` was 880 s; that for `O=C(c1nccc2ccccc12)N1C[C@@H](CO)[C@H](c2ccccn2)C1` was 578 s; that for `COc1ccccc1N1C(=O)c2cccc3cccc(c23)C1=O` was 832 s.
The value for `O=C(Nc1cccc(OCc2nnc(-c3ccccc3)o2)c1)c1ccnc(Cl)c1` was 926 s.
`COc1ccccc1NC(=O)N1CCN(c2cc(C)nc(N3CCCC3)n2)CC1` yielded an RP-LC retention time of 673 s.
The value for `O=C(COc1ccc(F)cc1)N1CC(n2cc(COCC3CC3)nn2)C1` was 736 s.
In the case of `CCCNC(=O)C1CCCN(c2ccc(SCC(=O)NCc3cc(F)cc(F)c3)nn2)C1` (stereo not given), the RP-LC retention time worked out at 646 s.
Then `CCN1C(=O)C(C)(C(=O)Nc2ccc(C(=O)OC)cc2)Oc2cccnc21` (stereo not given), with 861 s.
For `CNC(=O)N1CCC(OC(C)=O)CC1`, the RP-LC retention time was determined as 583 s.
Then `COc1ccc2c(c1)Cc1sc(NC(=O)c3ccc(Br)cc3)nc1-2`, with 1130 s; and `CCN1C(=O)COc2ccc(-c3noc(-c4ccc(C(F)(F)F)cc4)n3)cc21`, with 1260 s.
The compound `CC(C)CC(NC(=O)c1ccc(F)cc1)C(=O)Nc1nc2ccccc2[nH]1` (stereo not given) returned an RP-LC retention time of 746 s.
Consider `COc1ccc2[nH]cc(CCN3CC(C(=O)Nc4cc(C)ccc4C)CC3=O)c2c1` (stereo not given), for which the RP-LC retention time turned out to be 774 s.
With `COc1ccc(N2CC(NC(=O)C(=O)c3c[nH]c4ccccc34)CC2=O)cc1` (stereo not given), the RP-LC retention time was 761 s.
Then `CCS(=O)(=O)N1CCCc2cc(C(=O)NC(C)C)ccc21`, with 746 s.
Then `Cc1ccc(C)c(S(=O)(=O)N2CC(N(C(=O)NC(C)C)C3CCOCC3)C2)c1`, with 689 s; and `CCNS(=O)(=O)c1cccnc1Nc1ccc(F)cc1`, with 942 s.
The value for `CC(C)n1cnc(S(=O)(=O)N2CCCC(C(=O)N3CCN(c4ncccn4)CC3)C2)c1` (stereo not given) was 682 s; that for `O=c1c(NCC2CCCCC2)nc2ccncc2n1Cc1ccccc1` was 784 s; that for `N#Cc1ccc(NC(=O)C2CCN(S(=O)(=O)c3cc(C(=O)N4CCCC4)cs3)CC2)cc1` was 792 s.
`COC(=O)c1ccc(NC(=O)Cn2c(C)nc3c(sc4nc(-c5ccccc5)ccc43)c2=O)cc1` came in with an RP-LC retention time of 1020 s.
Take `CCCNC(=O)c1cc(C)nc2ccc(Br)cc12`: the RP-LC retention time is 718 s.
The value for `CCc1nc(-c2csc(S(=O)(=O)N3CCC(C(=O)Nc4ccc(Cl)cc4)CC3)c2)no1` was 1070 s; that for `COc1ccc(CC(=O)N2CCN(c3cc(C)n4c(C)nnc4n3)CC2)cc1Cl` was 614 s.
The value for `COc1ccccc1N1CCN(CCCCN2C(=O)c3ccccc3C2=O)CC1` was 751 s; that for `CCOc1ccc(NC(=O)c2[nH]c3cc(C)sc3c2CN2CCOCC2)cc1` was 1160 s; that for `Cc1nc(CC(=O)NCCc2c[nH]c3ccc(Cl)cc23)cs1` was 754 s.
The compound `COc1ccccc1-c1noc(C2CCCN2C(=O)Nc2ccccc2Cl)n1` (stereo not given) had an RP-LC retention time of 947 s.
Turning to `CC(=O)Nc1onc(C)c1-c1ccc(C)c(S(=O)(=O)Nc2ccc(C)cc2Cl)c1`, the RP-LC retention time is 864 s.
Then `CC(C)c1nnc(C2CN(C)CC23CCN(Cc2cc(Cl)ccc2F)CC3)o1` (stereo not given), with 563 s; and `Cc1sc(NC(=O)c2cccs2)nc1-c1ccccc1`, with 1070 s.
Then `CCOc1ccc(N2CC(c3nc(-c4cccc(C)c4)no3)CC2=O)cc1` (stereo not given), with 1050 s; and `O=C(NC1CCCc2c1[nH]c1ccc(F)cc21)c1ccncc1` (stereo not given), with 774 s; and `CCN(C(=O)Cn1nc(C(=O)N2CCCCC2)c2ccccc21)c1cccc(C)c1`, with 1010 s.
The value for `O=C(Nc1cccc(Cl)c1)c1nn2c(C(F)(F)F)cc(-c3ccco3)nc2c1Cl` was 1230 s; that for `CC(=O)Oc1ccccc1C1=NN(C(C)=O)C(c2ccccc2Cl)O1` (stereo not given) was 974 s.
`COc1ccc(-c2cc(N3CCC(NC(=O)c4ccc(Br)cc4)C3)n[nH]2)cc1` (stereo not given) came in with an RP-LC retention time of 966 s.
Then `O=C(NC1CCCC1)c1nnc(-c2ccc(S(=O)(=O)N3CCCC3)cc2)o1`, with 855 s.
`COc1ccc(-c2ncc(C(=O)Nc3ccc(OC)c(Cl)c3)c(-c3ccncc3)n2)cc1` displayed an RP-LC retention time of 902 s.
The value for `CC1=C(C(=O)Nc2ccccc2C(=O)NCCN2CCN(C)CC2)SCCO1` was 599 s; that for `Cc1cc(N2CCCCC2)nc(N2CCN(S(=O)(=O)c3ccc(Br)cc3)CC2)n1` was 847 s; that for `COc1ccc(-c2noc(Cc3nnc(-c4cccc(F)c4)o3)n2)cc1OC` was 914 s.
Then `CCn1c(CCc2ccccc2NS(=O)(=O)c2ccc(F)cc2F)nc2ccccc21`, with 755 s; and `COc1cc(Nc2cc(C(=O)N3CCC(C)CC3)nc3ccc(C)cc23)cc(OC)c1OC`, with 703 s.
For `CC1CCN(Cc2csc(N3CCN(C(=O)CCCc4ccccc4)CC3)n2)CC1`, the RP-LC retention time is 715 s.
The value for `CC(C)(C)C(=O)N1CCN(Cc2noc(-c3ccc(F)cc3)n2)CC1` was 712 s.
The value for `CC(C)N1C(=O)Cc2ccccc2C1C(=O)NCc1ccco1` (stereo not given) was 720 s.
`Cn1c(C2CCN(C(=O)c3ccc(Br)cc3)CC2)cc(=O)n2nccc12` yielded an RP-LC retention time of 679 s.
Then `CCn1nccc1-c1cccc(-c2noc(-c3ccsc3)n2)c1`, with 1130 s; and `Cc1occc1C(=O)N1CCc2nn(CC3CC3)c(=O)n2CC1`, with 646 s.
Then `O=c1n(Cc2cccc(Cl)c2)nc2ccc(S(=O)(=O)N3CCCCC3)cn12`, with 989 s.
The value for `O=C(COc1ccccc1)OCc1nc2ccccc2s1` was 929 s.
`COc1ccc(NC(=O)Cn2nc3cc(-c4ccccc4)nc(C)n3c2=O)cc1F` registered an RP-LC retention time of 914 s.
The value for `O=C(Nc1cccc(F)c1)c1c(O)c2cccnc2n(-c2cccc(F)c2)c1=O` was 723 s.
The value for `O=C(NCC(=O)N1CCCc2ccccc21)c1ccc(Br)cc1` was 892 s; that for `CCN1C(=O)c2c(C(=O)NCCc3cccc(C)c3)ncn2CC1(C)C(=O)NC1CCCC1` (stereo not given) was 819 s.
The value for `COc1cccc(NC(=O)N2CCC(OC3CCN(S(C)(=O)=O)CC3)CC2)c1` was 731 s.
With `Cn1ncc2c3ccccc3n(CC(=O)NCCc3cccs3)c2c1=O`, the RP-LC retention time was 784 s.
The value for `CCCN(CC1CCOC1)C(=O)c1ccc(F)c(Cl)c1` (stereo not given) was 842 s; that for `O=C(NCC1CCOCC1)c1cccc(Br)c1` was 733 s.
The value for `O=C(NC1CCCC1)c1c2c(nc3ccccc13)CCC2` was 637 s.
The value for `COCCNc1c(-c2ccc(F)cc2)nc2sc(C(=O)N3CCN(C)CC3)c(C)n12` was 569 s; that for `Cc1cccc(Nc2nc(CC(=O)N3CCC(C(N)=O)CC3)cs2)n1` was 539 s; that for `CC(C)CN1CCN(C(=O)CN2CCN(Cc3ccccc3)C2=O)CC1` was 579 s.
With `CCOC(=O)c1c(S(=O)(=O)N2CCC(C(=O)Nc3cccc(OC)c3)CC2)c(C)n(CC)c1C`, the RP-LC retention time was 891 s.
